{"source": "patent US12077527B2", "about": "“Compositions and methods for inhibiting ACSS2” (THE TRUSTEES OF THE UNIVERSITY OF PENNSYLVANIA, priority 2017, dated 2024)", "key": {"[1]": {"tested_on": "primary hippocampal neurons", "assay": "Western blots of lysates from primary hippocampal neurons treated with ACSS2i", "format": "cell-based, mouse", "settings": "day 7 neurons, ACSS2i 24 hours, western blot", "procedure": "Cells were lysed in buffer containing 50 mM Tris pH 8.0, 0.5 mM EDTA, 150 mM NaCl, 1% NP40, 1% SDS, supplemented with protease inhibitor cocktail (Life Technologies, number 78446). For subcellular fractionation experiments, the cells were processed using the subcellular fractionation kit for cultured cells (Thermo Scientific, number 78840) according to the manufacturer's instructions. Protein concentration was determined by BCA protein assay (Life Technologies, number 23227), and equal amounts of protein were used in co-immunoprecipitation experiments or directly loaded onto polyacrylamide gels. The endogenous co-immunoprecipitation experiments were performed using antibody-conjugated protein A Dynabeads (Life Technologies) in buffer containing: 20 mM Tris, pH 8.0, 137 mM NaCl, 1 mM MgCl2, 1 mM CaCl2, 1% NP-40, 10% glycerol, with protease and phosphatase inhibitors, and 12.5 U/mL benzonase (Novagen, 70746). Proteins or co-immunoprecipitation eluates were loaded and separated on 4-12% Bis-Tris polyacrylamide gels (NuPAGE). After transfer to nitrocellulose membrane, 3% BSA in TBS supplemented with 0.1% Tween 20 (TBST) was used to block the membrane at room temperature for 1 hour. Primary antibodies were diluted in TBST, and incubated at 4° C. overnight. Primary antibodies are listed below. The membrane was washed three times with TBST, each for 10 min, followed by incubation with HRP-conjugated secondary antibodies at room temperature for 1 hour, in TBST. The membrane was washed again three times, and imaged with a Fujifilm LAS-4000 imager. Original gel blots are provided as FIGS. 14-16. […]"}, "[2]": {"tested_on": "primary hippocampal neurons", "assay": "RNA-seq of acetate-treated primary hippocampal neurons with or without ACSS2i", "format": "cell-based, mouse", "procedure": "All RNA-seq data were prepared for analysis as follows: NextSeq sequencing data was demultiplexed using native apps on BaseSpace. Demultiplexed FASTQs were aligned by RNA-STAR 2.5.2 to assembly mml0 (GRCm38). Aligned reads were mapped to genomic features using HTSeq 0.6.1. Quantification, library size adjustment, and differential gene expression analysis was done using DESeq2 and Wald's test (pairwise contrasts between acetate and DMSO-treatment in the inhibitor-treated or untreated cells, followed by a set overlap of differentially expressed genes). Gene list overlaps were tested for significance using the hypergeometric test.\nNext, the functional relevance of alcohol-derived acetate for ACSS2-dependent histone acetylation in regulating hippocampal gene expression was examined (FIG. 23E, right). […] However, in line with the ChIP-seq data, this response was markedly blunted in ACSS2 KD mice. […] Because alcohol and acetate have pleiotropic effects on brain circuitry and metabolism, an in vitro assay was then developed to more closely model the direct effects of exogenous acetate on gene expression. […]"}, "[3]": {"tested_on": "differentiated CAD neurons", "assay": "RNA-seq of differentiated CAD neurons treated with ACSS2i", "format": "cell-based, mouse", "procedure": "(§1) CAD cells (Cath.-a-differentiated) were grown in Dulbecco's modified Eagle's medium (DMEM):Ham's F12 (1:1), supplemented with 2 mM glutamine, 1% penicillin/streptomycin, and 10% fetal bovine serum (FBS). To induce neuronal differentiation, sub-confluent CAD cell cultures (50-60%) were transferred to serum-free medium (DMEM:Ham's F12 (1:1) supplemented with 2 mM glutamine) and maintained in […] culture dishes for 5 days. […] For knockdown experiments, CAD cells were infected with lentiviral hairpin constructs (TRC collection) designed against ACL (#TRCN0000055217) or ACSS2 (#TRCN0000076124, #TRCN0000076125) in medium containing […] polybrene and 10% FBS for 24 hours. Cells then underwent selection in culture medium supplemented with 0.5 mg/mL puromycin for 5 days to obtain a stably infected population. Cell treatment with ACSS2i (1-(2,3-di(thiophen-2-yl)quinoxalin-6-yl)-3-(2-methoxyethyl)urea (DMSO)) was carried out for 24 hours at a final concentration of 20 μM (treatment with DMSO alone served as control).\nTo generate libraries for RNA-seq, poly(A)^+ RNA was extracted using the Dynabeads mRNA Direct kit (Ambion) according to the manufacturer's instructions. […] The quantity and quality of the libraries were assessed by BioAnalyzer (Agilent) and qPCR (Kapa Biosystems). The multiplexed libraries were pooled and sequenced on a single lane on the Illumina NextSeq 500 platform (50 bp, single-end reads). […] The aligned reads were mapped to genomic features using cufflinks-2.2.1, (-G parameter to quantify only known features), and iGenomes mml0 UCSC genomic transcript loci. The rRNA, […], and tRNA of the mouse genome were downloaded from the goldenPath UCSC FTP and were masked from the transcript quantification. After quantification, all data processing was done using python pandas library v.0.14.0. […] The statistical significance of the trend and reproducibility were assessed by taking the top 20% of genes by loss of expression in the knockdown and comparing the expression of these genes in inhibitor-treated cells to a random sample of genes outside this set (Mann-Whitney test)."}, "[4]": {"tested_on": "differentiated CAD neurons", "assay": "Nuclear acetyl-CoA quantification (PicoProbe assay) in differentiated CAD neurons", "format": "cell-based, mouse", "settings": "versus control, n=3", "procedure": "as §1\nTo extract and quantify acetyl-CoA from differentiated CAD neurons, 4×10^6 cells were washed and incubated in lysis buffer for 30 min (10 mM Tris pH 8, 1 mM KCl, 1.5 mM MgCl2, 1 mM DTT). […] The PicoProbe assay was performed in 96-well clear-bottom plates, and the resulting fluorescence was quantified using the Synergy HTX Multi-Mode Microplate Reader (BioTek Instruments)."}, "ACSS2": {"target": "T1, ACSS2 (Mus musculus, UniProt Q9QXG4)", "T1 construct": "from tissue; host or cells: brain (hippocampus) of living mice", "T1 sequence (Q9QXG4 whole entry)": "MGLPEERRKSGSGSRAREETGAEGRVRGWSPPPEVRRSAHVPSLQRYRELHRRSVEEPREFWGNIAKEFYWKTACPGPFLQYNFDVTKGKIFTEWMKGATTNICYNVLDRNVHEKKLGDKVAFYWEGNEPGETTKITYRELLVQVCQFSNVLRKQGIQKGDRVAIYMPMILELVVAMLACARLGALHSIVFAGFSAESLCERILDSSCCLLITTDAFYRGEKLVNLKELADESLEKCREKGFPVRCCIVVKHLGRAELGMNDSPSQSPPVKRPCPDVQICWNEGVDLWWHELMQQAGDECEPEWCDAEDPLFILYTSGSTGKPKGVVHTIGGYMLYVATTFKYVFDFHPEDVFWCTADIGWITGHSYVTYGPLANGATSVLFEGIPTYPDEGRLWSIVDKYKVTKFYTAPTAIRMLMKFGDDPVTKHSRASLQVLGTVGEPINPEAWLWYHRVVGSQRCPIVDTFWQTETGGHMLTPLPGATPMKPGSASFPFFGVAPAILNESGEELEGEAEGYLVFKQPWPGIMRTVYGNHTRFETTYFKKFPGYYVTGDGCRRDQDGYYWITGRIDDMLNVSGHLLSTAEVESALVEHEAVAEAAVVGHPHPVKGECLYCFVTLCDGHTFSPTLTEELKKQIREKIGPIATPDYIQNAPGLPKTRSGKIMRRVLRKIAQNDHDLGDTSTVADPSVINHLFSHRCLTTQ", "assay": "Incorporation of alcohol-derived heavy acetyl groups into brain histone acetylation (Example 6)", "format": "in vivo", "settings": "mice treated with ACSS2 inhibitor", "procedure": "To investigate the direct role of ACSS2 in alcohol-dependent acetylation in the brain, mice are treated with an ACSS2 inhibitor, ADG-204, ADG-205, ADG-206, or ADG-207. […] In contrast, in control mice, vHPC incorporation of the heavy label is not affected. Thus, acetate derived from hepatic alcohol metabolism is transported to the brain and readily incorporated into histone acetylation."}}}
{"smiles": "COCCNC(=O)Nc1ccc2nc(-c3cccs3)c(-c3cccs3)nc2c1", "note": "[ACSS2i, 1-(2,3-di(thiophen-2-yl)quinoxalin-6-yl)-3-(2-methoxyethyl)urea]", "values": [{"measurement": "ACSS2 levels", "setting": "[1]", "value": "without lowering ACSS2 levels"}, {"measurement": "histone acetylation", "setting": "[1]", "value": "reduced"}, {"measurement": "neuronal marker expression", "setting": "[1]", "value": "reduced"}, {"measurement": "regulation of acetate-induced genes by ACSS2i", "setting": "[2]; in the absence of acetate", "value": "not regulated"}, {"measurement": "acetate-induced genes that failed to become upregulated in the presence of ACSS2i", "setting": "[2]; of 3613 acetate-induced genes, 10 mM acetate 24 hours", "value": 2107, "unit": "genes"}, {"measurement": "expression of differentiation-induced genes (RNA-seq)", "setting": "[3]; 24-hour ACSS2i 20 μM vs DMSO", "value": "a reduction in differentiation-induced genes"}, {"measurement": "expression of ND genes (genes linked to neuronal differentiation, 1,315 genes)", "setting": "[3]; ACSS2i-treated vs DMSO-treated CAD neurons", "value": "markedly reduced"}, {"measurement": "genes that showed reduced expression upon ACSS2i treatment", "setting": "[3]; RNA-seq, 24-hour ACSS2i 20 μM vs DMSO", "value": 299, "unit": "genes"}, {"measurement": "Nuclear acetyl-CoA levels, mean Δ", "setting": "[4]", "value": "−0.25±0.05"}]}
{"smiles": "CCCCCNC(=O)Nc1ccc2nc(-c3cccs3)c(-c3cccs3)nc2c1", "note": "[ADG-204, 1-(2,3-di(thiophen-2-yl)quinoxalin-6-yl)-3-penlylurea]", "values": [{"measurement": "incorporation of alcohol-derived heavy acetyl groups into histone acetylation", "setting": "ACSS2", "value": "prevents the incorporation of alcohol-derived heavy acetyl groups into histone acetylation"}]}
{"smiles": "COCCNC(=O)Nc1ccc2nc(-c3cccs3)c(-c3cccs3)nc2c1", "note": "[ADG-205, 1-(2,3-di(thiophen-2-yl)quinoxalin-6-yl)-3-(2-methoxyethyl)urea]", "values": [{"measurement": "incorporation of alcohol-derived heavy acetyl groups into histone acetylation", "setting": "ACSS2", "value": "prevents the incorporation of alcohol-derived heavy acetyl groups into histone acetylation"}]}
{"smiles": "CNC(=O)Nc1ccc2nc(-c3cccs3)c(-c3cccs3)nc2c1", "note": "[ADG-206, 1-(2,3-di(thiophen-2-yl)quinoxalin-6-yl)-3-methylurea]", "values": [{"measurement": "incorporation of alcohol-derived heavy acetyl groups into histone acetylation", "setting": "ACSS2", "value": "prevents the incorporation of alcohol-derived heavy acetyl groups into histone acetylation"}]}
{"smiles": "O=C(Nc1ccc2nc(-c3cccs3)c(-c3cccs3)nc2c1)NC12CC3CC(CC(C3)C1)C2", "note": "[ADG-207, 1-((1S,3s)-adamantan-1-yl)-3-(2,3-di(thiophen-2-yl)quinoxalin-6-yl)urea]", "values": [{"measurement": "incorporation of alcohol-derived heavy acetyl groups into histone acetylation", "setting": "ACSS2", "value": "prevents the incorporation of alcohol-derived heavy acetyl groups into histone acetylation"}]}
